Experimental data from patent publication US6984486B1, “Synthetic peptide of regulatory virus protein R (VPR) of human immunodeficiency virus type 1 (HIV-1) and the utilization thereof” (J. David Gladstone Institutes, priority 1999, dated 2006).

Experiments:
[1] = compared with native viral Vpr
[2] = system: vpr deficient HIV-1 mutant viruses; settings: primary human monocytes/macrophages from different donors, vpr-deficient mutant NL(AD8)deltaR, two months
Text: Parallel cultures of differentiated MDM isolated from three different donors were infected with equal infectious doses of purified virus stocks of the macrophage-tropic virus NL4-3(AD8) as well as the vpr-deficient mutant NL(AD8)deltaR. Virus production was followed over a time frame of two months and release of virus associated RT-activity was plotted against time.

[3] = system: human PBMC; settings: cultures of human PBMC infected with HIV-1NL4-3, 10 nM peptide
Text: (§1) Cultures of PHA- and IL-2-activated PBMCs were infected with equal infectious doses of the following virus stocks: HIV-1NL4-3 (A, B, C), NL4-3(AD8) (D) as well as the vpu-deficient mutant NL(AD8)-UDEL1 (E), and the vpr-deficient mutant NL(AD8)deltaR (F).

[4] = system: HIV-1NL4-3; settings: cultures of human PBMC, 10 nM peptide
Text: as §1

**Q.** What does the source list for “H-Met-Glu-Gln-Ala-Pro-Glu-Asp-Gln-Gly-Pro-Gln-Arg-Glu-Pro-Tyr-Asn-Gln-Trp-Thr-Leu-Glu-Leu-Leu-Glu-Glu-Leu-Lys-Ser-Glu-Ala-Val-Arg-His-Phe-Pro-Arg-Ile-Trp-Leu-His-Asn-Leu-Gly-Gln-His-Ile-Tyr-Glu-Thr-Tyr-Gly-Asp-Thr-Trp-Ala-Gly-Val-Glu-Ala-Ile-Ile-Arg-Ile-Leu-Gln-Gln-Leu-Leu-Phe-Ile-His-Phe-Arg-Ile-Gly-Cys-Arg-His-Ser-Arg-Ile-Gly-Val-Thr-Arg-Gln-Arg-Arg-Ala-Arg-Asn-Gly-Ala-Ser-Arg-Set-OH [sVpr^1-96]”?
**A.** biological activities [1]: comparable to native viral Vpr; virus replication (release of virus associated RT-activity) [2]: activates virus replication; number of live cells [3]: increases the number of live cells; virus replication (virus associated RT-activity released into cell culture supernatant) [4]: activates virus replication
